Results: US20240025856A1, “1,2,3,4-TETRAHYDROQUINOLINE DERIVATIVES AS INHIBITORS OF THE YAP/TAZ-TEAD ACTIVATION FOR TREATING CANCER” (KATHOLIEKE UNIVERSITEIT LEUVEN, priority 2020, published 2024)

Legend:
Type in all cases: cell-based
[1] = test system: NCI-1H2052; assay: Mesothelioma cell line proliferation assay, H2052 (ATPlite); details: Homo sapiens, NCI-H2052, 144 h, 6 days with compound, read-out: H2025 (EC50)
Procedure: (§1) Mesothelioma cell lines, NCI-1H226 and NCI-1H2052 (all sourced from the ATCC cell culture collection) are plated in 96-well plates (Corning® 96 Well White Polystyrene Microplate clear flat bottom, white polystyrene (TC-Treated)), at 1500 cells/well in full medium (RPMI 1640 ATCC modification with L-glutamine, HEPES, Phenol Red, Sodium Pyruvate, High glucose, Low sodium bicarbonate and 10% fetal bovine serum). Cells are incubated overnight at 37° C. in an incubator with 5% C02. Then compounds, dissolved in DMSO, are added in dose-response. Cells are incubated with compound dilutions for another 6 days at 37° C. in an incubator with 5% C02. Cell viability is quantitated using the ATPlite kit (Perkin-Elmer) and the luminescence is read-out using an Envision instrument (Perkin-Elmer). The amount of relative light units produced using the ATPlite kit is used to calculated percent of inhibition.
(§2) The activities of some example compounds are depicted in the table below. The activity ranges A, B and C refer to EC50 values in the mesothelioma cell line proliferation assay as described as follows: “A”: EC50<1 μM; “B”: 1 μM s EC50≤10 μM and “C”: EC50≥10 μM; NT: not tested.

[2] = test system: NCI-1H226; assay: Mesothelioma cell line proliferation assay, H226 (ATPlite); details: Homo sapiens, NCI-H226, 144 h, 6 days with compound
Procedure: as §1, §2

[3] = test system: YAP/TAZ-TEAD transcription; assay: Reporter gene assay for measuring the inhibition of YAP/TAZ-TEAD transcription (TEAD-responsive element luciferase reporter in Hek293T cells); details: Hek293T cells transiently transfected with TEAD-responsive element luciferase reporter, 24 hours incubation
How it was run: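 Readout is SteadyLite luciferase luminescence from a TEAD-responsive element reporter transiently transfected into Hek293T cells, exposed to compounds for 24 h at 37 °C/5% CO2. IC50 derived from percent inhibition, scaled between vehicle basal activity (0%) and positive control inhibitor (100%).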

## C=CC(=O)NC1Cc2c(F)cccc2N(c2ccc(C(F)(F)F)cc2)C1 (stereo not drawn) [compound 060, N-(5-fluoro-1-(4-(trifluoromethyl)phenyl)-1,2,3,4-tetrahydroquinolin-3-yl)acrylamide]
[1]
  EC50: < 1000 nM
[2]
  EC50: < 1000 nM
[3]; Homo sapiens, HEK-293T, 24 h
  IC50: < 1000 nM

## C=CC(=O)NC1Cc2nc(N)ccc2N(c2ccc(C(F)(F)F)cc2)C1 (stereo not drawn) [Cpd. No. 140, N-(6-amino-1-(4-(trifluoromethyl)phenyl)-1,2,3,4-tetrahydro-1,5-naphthyridin-3-yl)acrylamide]
[1]
  EC50: < 1000 nM
[2]
  EC50: < 1000 nM
[3]; Homo sapiens, HEK-293T, 24 h
  IC50: < 1000 nM

## CC(=O)NCC1Cc2c(N)cccc2N(c2ccc(C(F)(F)F)cc2)C1 (stereo not drawn) [compound 150, N-((5-amino-1-(4-(trifluoromethyl)phenyl)-1,2,3,4-tetrahydroquinolin-3-yl)methyl)acetamide]
[1]
  EC50: < 1000 nM
[2]
  EC50: < 1000 nM
[3]; Homo sapiens, HEK-293T, 24 h
  IC50: < 1000 nM

## C=CC(=O)NCC1Cc2ccccc2N([C@H]2CC[C@H](C(F)(F)F)CC2)C1 (stereo partly drawn) [compound 143, trans-N-((1-(4-(trifluoromethyl)cyclohexyl)-1,2,3,4-tetrahydroquinolin-3-yl)methyl)acrylamide]
[1]
  EC50: < 1000 nM
[2]
  EC50: < 1000 nM
[3]; Homo sapiens, HEK-293T, 24 h
  IC50: < 1000 nM

## C=CC(=O)NC1Cc2ccccc2N(c2ccc(C#N)cc2)C1 (stereo not drawn) [compound 142, N-(1-(4-cyanophenyl)-1,2,3,4-tetrahydroquinolin-3-yl)acrylamide]
[1]
  EC50: < 1000 nM
[2]
  EC50: < 1000 nM
[3]; Homo sapiens, HEK-293T, 24 h
  IC50: < 1000 nM

## C=CC(=O)NC1Cc2c(CC#N)cccc2N(c2ccc(C(F)(F)F)cc2)C1 (stereo not drawn) [compound 164, N-(5-(cyanomethyl)-1-(4-(trifluoromethyl)phenyl)-1,2,3,4-tetrahydroquinolin-3-yl)acrylamide]
[1]
  EC50: < 1000 nM
[2]
  EC50: < 1000 nM
[3]; Homo sapiens, HEK-293T, 24 h
  IC50: < 1000 nM

## FC(F)(F)c1ccc(N2CC(C3CC(Br)=NO3)Cc3ccccc32)cc1 (stereo not drawn) [Cpd. No. 194, 3-bromo-5-(1-(4-(trifluoromethyl)phenyl)-1,2,3,4-tetrahydroquinolin-3-yl)-4,5-dihydroisoxazole]
[1]
  EC50: ≥ 10000 nM
[2]
  EC50: < 1000 nM
[3]; Homo sapiens, HEK-293T, 24 h
  IC50: < 1000 nM

## C=CC(=O)NC1Cc2cccnc2N(c2ccc(C(F)(F)F)cc2)C1 (stereo not drawn) [compound 081, N-(1-(4-(trifluoromethyl)phenyl)-1,2,3,4-tetrahydro-1,8-naphthyridin-3-yl)acrylamide]
[1]
  EC50: < 1000 nM
[2]
  EC50: < 1000 nM
[3]; Homo sapiens, HEK-293T, 24 h
  IC50: < 1000 nM

## C=CC(=O)NCC1Cc2c(CC#N)cccc2N(c2ccc(C(F)(F)F)cc2)C1 (stereo not drawn) [Cpd. No. 163, N-((5-(cyanomethyl)-1-(4-(trifluoromethyl)phenyl)-1,2,3,4-tetrahydroquinolin-3-yl)methyl)acrylamide]
[1]
  EC50: < 1000 nM
[2]
  EC50: < 1000 nM
[3]; Homo sapiens, HEK-293T, 24 h
  IC50: < 1000 nM

## C=CC(=O)NCC1Cc2ccccc2N(c2ccc(C(F)F)nc2)C1 (stereo not drawn) [compound 149, N-((1-(6-(difluoromethyl)pyridin-3-yl)-1,2,3,4-tetrahydroquinolin-3-yl)methyl)acrylamide]
[1]
  EC50: 1000 to 10000 nM
[2]
  EC50: 1000 to 10000 nM
[3]; Homo sapiens, HEK-293T, 24 h
  IC50: < 1000 nM

## C=CC(=O)NC1Cc2c(C#N)cccc2N(c2ccc(C(F)(F)F)cc2)C1 (stereo not drawn) [compound 078, N-(5-cyano-1-(4-(trifluoromethyl)phenyl)-1,2,3,4-tetrahydroquinolin-3-yl)acrylamide]
[1]
  EC50: < 1000 nM
[2]
  EC50: < 1000 nM
[3]; Homo sapiens, HEK-293T, 24 h
  IC50: < 1000 nM

## C=CC(=O)NC1Cc2c(CO)cccc2N(c2ccc(C(F)(F)F)cc2)C1 (stereo not drawn) [compound 139, N-(5-(hydroxymethyl)-1-(4-(trifluoromethyl)phenyl)-1,2,3,4-tetrahydroquinolin-3-yl)acrylamide]
[1]
  EC50: < 1000 nM
[2]
  EC50: < 1000 nM
[3]; Homo sapiens, HEK-293T, 24 h
  IC50: < 1000 nM

## C=CC(=O)NC1Cc2ccccc2N(c2ccc(C(F)(F)F)c(F)c2)C1 (stereo not drawn) [compound 028, N-(1-(3-fluoro-4-(trifluoromethyl)phenyl)-1,2,3,4-tetrahydroquinolin-3-yl)acrylamide]
[1]
  EC50: < 1000 nM
[2]
  EC50: < 1000 nM
[3]; Homo sapiens, HEK-293T, 24 h
  IC50: < 1000 nM

## FC(F)(F)c1ccc(N2CC(C3CC(Br)=NO3)Cc3ccccc32)cc1 (single isomer, unassigned) [Cpd. No. 194(Dia1)-En1, 3-bromo-5-(1-(4-(trifluoromethyl)phenyl)-1,2,3,4-tetrahydroquinolin-3-yl)-4,5-dihydroisoxazole]
[1]
  EC50: < 1000 nM
[2]
  EC50: < 1000 nM
[3]
  IC50: < 1000 nM

## C=CC(=O)NC1Cc2ccccc2N(c2ccc(C(F)(F)F)cc2F)C1 (stereo not drawn) [compound 029, N-(1-(2-fluoro-4-(trifluoromethyl)phenyl)-1,2,3,4-tetrahydroquinolin-3-yl)acrylamide]
[1]
  EC50: < 1000 nM
[2]
  EC50: < 1000 nM
[3]; Homo sapiens, HEK-293T, 24 h
  IC50: < 1000 nM

## C=C(F)C(=O)NC1Cc2ccccc2N(c2ccc(C(F)(F)F)cc2)C1 (stereo not drawn) [compound 039, 2-fluoro-N-(1-(4-(trifluoromethyl)phenyl)-1,2,3,4-tetrahydroquinolin-3-yl)acrylamide]
[1]
  EC50: < 1000 nM
[2]
  EC50: < 1000 nM
[3]; Homo sapiens, HEK-293T, 24 h
  IC50: < 1000 nM

## C=CC(=O)NC1Cc2c(N)cccc2N(c2ccc(C(F)(F)F)cc2)C1 (stereo not drawn) [compound 075, N-(5-amino-1-(4-(trifluoromethyl)phenyl)-1,2,3,4-tetrahydroquinolin-3-yl)acrylamide]
[1]
  EC50: < 1000 nM
[2]
  EC50: < 1000 nM
[3]; Homo sapiens, HEK-293T, 24 h
  IC50: < 1000 nM

## CC(=O)NCC1Cc2c(C#N)cccc2N(c2ccc(C(F)(F)F)cc2)C1 (stereo not drawn) [Cpd. No. 154, N-((5-cyano-1-(4-(trifluoromethyl)phenyl)-1,2,3,4-tetrahydroquinolin-3-yl)methyl)acetamide]
[1]
  EC50: 1000 to 10000 nM
[2]
  EC50: < 1000 nM
[3]; Homo sapiens, HEK-293T, 24 h
  IC50: < 1000 nM

## C=CC(=O)NCC1Cc2ccccc2N(c2ccc(C#N)cc2)C1 (stereo not drawn) [compound 147, N-((1-(4-cyanophenyl)-1,2,3,4-tetrahydroquinolin-3-yl)methyl)acrylamide]
[1]
  EC50: < 1000 nM
[2]
  EC50: < 1000 nM
[3]; Homo sapiens, HEK-293T, 24 h
  IC50: < 1000 nM

## C=CC(=O)NC1Cc2ncccc2N(c2ccc(C(F)(F)F)cc2)C1 (stereo not drawn) [compound 080, N-(1-(4-(trifluoromethyl)phenyl)-1,2,3,4-tetrahydro-1,5-naphthyridin-3-yl)acrylamide]
[1]
  EC50: < 1000 nM
[2]
  EC50: < 1000 nM
[3]; Homo sapiens, HEK-293T, 24 h
  IC50: < 1000 nM

## C=CC(=O)NC1Cc2c(OC)cccc2N(c2ccc(C(F)(F)F)cc2)C1 (stereo not drawn) [compound 073, N-(5-methoxy-1-(4-(trifluoromethyl)phenyl)-1,2,3,4-tetrahydroquinolin-3-yl)acrylamide]
[2]
  EC50: < 1000 nM
[3]; Homo sapiens, HEK-293T, 24 h
  IC50: < 1000 nM

## C=CC(=O)NCC1Cc2c(N)cccc2N(c2ccc(C(F)(F)F)cc2)C1 (stereo not drawn) [Cpd. No. 153, N-((5-amino-1-(4-(trifluoromethyl)phenyl)-1,2,3,4-tetrahydroquinolin-3-yl)methyl)acrylamide]
[1]
  EC50: < 1000 nM
[2]
  EC50: < 1000 nM
[3]; Homo sapiens, HEK-293T, 24 h
  IC50: < 1000 nM

## C=CC(=O)NC1Cc2c(Cc3cccnc3)cccc2N(c2ccc(C(F)(F)F)cc2)C1 (stereo not drawn) [compound 059, N-(5-(pyridin-3-yl-methyl)-1-(4-(trifluoromethyl)phenyl)-1,2,3,4-tetrahydroquinolin-3-yl)acrylamide]
[2]
  EC50: < 1000 nM
[3]; Homo sapiens, HEK-293T, 24 h
  IC50: < 1000 nM

## C=CC(=O)NC1Cc2ccccc2N(Cc2ccc(C(F)(F)F)cc2)C1 (stereo not drawn) [compound 181, N-(1-(4-(trifluoromethyl)benzyl)-1,2,3,4-tetrahydroquinolin-3-yl)acrylamide]
[2]
  EC50: < 1000 nM
[3]; Homo sapiens, HEK-293T, 24 h
  IC50: < 1000 nM
